Assay results taken from ChEMBL document CHEMBL1201862, “PubChem BioAssay data set” (2004).
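Following 48 hours of exposure in 96-well plates, responses at five concentrations were used to interpolate endpoints linearly. At the GI50, growth is halved.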 Calls of active or inactive are those of the source. Cut-off read from the data, not from the text of the source: active = GI50 up to about 1.1 µM and inactive = higher.

Assays:
Assay in all cases: growth of human tumour cells (NCI), 48 h
786-0 = tested on: 786-0
A498 = tested on: A498
CAKI-1 = tested on: CAKI-1
COLO 205 = tested on: COLO 205
DU-145 = tested on: DU-145
HCT-15 = tested on: HCT-15
HT-29 = tested on: HT-29
M14 = tested on: M14
MCF7 = tested on: MCF7
NCI-H226 = tested on: NCI-H226
OVCAR-3 = tested on: OVCAR-3
OVCAR-5 = tested on: OVCAR-5
RXF 393 = tested on: RXF 393
SF-268 = tested on: SF-268
SF-539 = tested on: SF-539
SK-MEL-5 = tested on: SK-MEL-5
SK-OV-3 = tested on: SK-OV-3
SR = tested on: SR
TK-10 = tested on: TK-10
UACC-257 = tested on: UACC-257

Structure (SMILES) | GI50 (786-0) | GI50 (A498) | GI50 (CAKI-1) | GI50 (COLO 205) | GI50 (DU-145) | GI50 (HCT-15) | GI50 (HT-29) | GI50 (M14) | GI50 (MCF7) | GI50 (NCI-H226) | GI50 (OVCAR-3) | GI50 (OVCAR-5) | GI50 (RXF 393) | GI50 (SF-268) | GI50 (SF-539) | GI50 (SK-MEL-5) | GI50 (SK-OV-3) | GI50 (SR) | GI50 (TK-10) | GI50 (UACC-257)
CCc1ccc(/C=C\c2cc(OC)c(OC)c(OC)c2)cc1 | < 19.6 nM (active) | 14 nM (active) | 38 nM (active) | 12.2 nM (active) | 30.3 nM (active) | 44.9 nM | 9.93 nM (active) | 50.2 nM (active) | 37.5 nM (active) | 24 nM (active) | 8.43 nM (active) | 391 nM (active) | 9.08 nM (active) | 149 nM (active) | 10.1 nM (active) | 18.1 nM (active) | 13 nM (active) | 2.47 nM (active) | 337 nM (active) | 26.8 nM (active)
C[C@]12CCC(=O)C=C1CC[C@@H]1[C@@H]2[C@@H](O)C[C@@]2(C)[C@H]1CC[C@]2(O)C(=O)CO [HYDROCORTISONE] | > 100000 nM (inactive) | > 100000 nM (inactive) | > 100000 nM (inactive) | > 100000 nM (inactive) | > 100000 nM (inactive) | > 100000 nM | > 100000 nM (inactive) | > 100000 nM (inactive) | > 100000 nM (inactive) | > 100000 nM (inactive) | > 100000 nM (inactive) | > 100000 nM (inactive) | > 100000 nM (inactive) | > 100000 nM (inactive) | > 100000 nM (inactive) | > 100000 nM (inactive) | > 100000 nM (inactive) | > 100000 nM (inactive) | > 100000 nM (inactive) | > 100000 nM (inactive)
C=C(C)[C@H]1Cc2c(ccc3c2O[C@@H]2COc4cc(OC)c(OC)cc4[C@@H]2C3=O)O1 [ROTENONE] | 236 nM (active) | 335 nM (active) | 185 nM (active) | 118 nM (active) | 133 nM (active) | 122 nM | 127 nM (active) | 210 nM (active) | 281 nM (active) | 177 nM (active) | 56.6 nM (active) | 2550 nM (inactive) | 83.6 nM (active) | 191 nM (active) | 128 nM (active) | 20.3 nM (active) | 206 nM (active) | 617 nM (active) | 229 nM (active) | 51.6 nM (active)
COc1cc2c3c(c4ccc(OC)c(OC)c4c2cc1OC)CN1CCC[C@@H]1C3 [TYLOCREBRINE] | < 17.3 nM (active) | < 10 nM (active) | < 21.6 nM (active) | 22.8 nM (active) | 24.8 nM (active) | 31.2 nM | 20.8 nM (active) | 33.3 nM (active) | 54.8 nM (active) | < 17.6 nM (active) | 107 nM (active) | 74.5 nM (active) | < 15.5 nM (active) | < 17.1 nM (active) | 19.1 nM (active) | 29.2 nM (active) | 124 nM (active) | 36.5 nM (active) | 57.4 nM (active) | 61.2 nM (active)
